Experimental data published in publication PMC10743086, “Immunofluorescence-Based Assay for High-Throughput Analysis of Multidrug Resistance Markers in Non-Small Cell Lung Carcinoma Patient-Derived Cells” (Diagnostics, 2023).

Legend:
Format in all cases: cell-based, human
[1] = tested on: ABCG2 expression in cancer cells (CK8/18+); experiment: Immunofluorescence assay of ABCG2 expression in patient-derived NSCLC cultures; details: 7 days
Experimental: (§1) Tissue samples were collected during surgery, and the NSCLC diagnosis, histological grade, stage, necrosis, and lymph node invasion status were determined by histopathological analysis. […] The surgical specimens were placed in a sterile tube containing antibiotic-antimycotic solution (Sigma-Aldrich Chemie GmbH, Taufkirchen, Germany) and immediately transported to the research laboratory for further processing.
(§2) Upon arrival, the tissue was manually chopped with a surgical blade in a Petri dish under sterile conditions. The samples were cut into 3–5 mm pieces and further dissociated using the Tumor Dissociation Kit (Miltenyi Biotec, Bergisch Gladbach, Germany). The Tumor Dissociation Kit was used to dissociate the cells from the tumor tissue according to the manufacturer’s instructions. The samples were incubated in a 37 °C orbital shaker (KS 4000 ic control, IKA, Königswinter, Germany) at 300 rpm for 90 min. After incubation, the dissociated tissue was placed in DMEM/Ham’s F12 (1:3 ratio) growth medium supplemented with 5% fetal bovine serum (Corning, NY, USA), antibiotic-antimycotic solution, 4 µg/mL hydrocortisone (Sigma-Aldrich Chemie GmbH, Taufkirchen, Germany), 1 µg/mL insulin (Sigma-Aldrich Chemie GmbH, Taufkirchen, Germany), 10 ng/mL epidermal growth factor (BioLegend, San Diego, CA, USA), and 24 µg/mL adenine (Sigma-Aldrich Chemie GmbH, Taufkirchen, Germany). The DMEM and Ham’s F12 growth media were purchased from Sigma-Aldrich Chemie GmbH (Taufkirchen, Germany).
(§3) The dissociated tissue was cultured in T-25 cell culture flasks until cell attachment was observed before the medium was replaced. If no cell attachment was achieved within 7 days, the sample was discarded. Successful patient-derived cultures were maintained at 37 °C in a humidified atmosphere with 5% CO2 and grown to confluence before undergoing further experiments. […] Partial trypsinization was performed by detaching the fibroblast-like cells with 1 mL of 0.05% trypsin for 1 min at 37 °C, followed by 2 min at room temperature (RT).
(§4) Vinorelbine and pemetrexed were purchased from Selleckchem (Houston, TX, USA). Carboplatin, cisplatin, docetaxel, etoposide, gemcitabine, gefitinib, and paclitaxel were purchased from Sigma-Aldrich Chemie GmbH (Taufkirchen, Germany). The cisplatin, carboplatin, and gemcitabine were dissolved in sterile water, while the etoposide, docetaxel, vinorelbine, paclitaxel, gefitinib, and pemetrexed were dissolved in DMSO and stored at −20 °C. Before treatment, all the stock solutions were freshly diluted in sterile water.
(§5) The primary cells were seeded in black, clear bottom 384-well cell culture microplates (Thermo Fisher Scientific, Waltham, MA, USA) in 50 µL of cell growth medium at a density of 1000 cells per well. The compounds were administered 72 h after seeding. The treatment lasted 7 days.
(§6) The immunofluorescence assay for the quantification of MDR markers was optimized to distinguish cancer cells from stromal cells using a cytokeratin 8/18 (CK8/18) antibody cocktail. The cells were fixed with 4% paraformaldehyde for 20 min at RT and washed three times with PBS using the Wellwash Versa microplate washer (Thermo Fisher Scientific, Waltham, MA, USA). The cells were then blocked with 2% bovine serum albumin (BSA) in PBS for 1 h at RT. […] Co-immunostaining with antibodies against MDR markers was performed to detect the presence of ABCB1, ABCC1, and ABCG2 in both the cancer and stromal cells. […] The secondary antibodies were incubated with the cells at RT for 2 h in the dark. […] Finally, the cells were washed three times with PBS and stored at 4 °C in the dark before imaging.

[2] = tested on: ABCG2 expression in non-cancer cells (CK8/18-); experiment: Immunofluorescence assay of ABCG2 expression in patient-derived NSCLC cultures, non-cancer cells; details: sample TR58, chemotherapeutics, 7 days
Experimental: as §1
Upon arrival, the tissue was manually chopped with a surgical blade in a Petri dish under sterile conditions. The samples were cut into 3–5 mm pieces and further dissociated using the Tumor Dissociation Kit (Miltenyi Biotec, Bergisch Gladbach, Germany). The Tumor Dissociation Kit was used to dissociate the cells from the tumor tissue according to the manufacturer’s instructions. The samples were incubated in a 37 °C orbital shaker (KS 4000 ic control, IKA, Königswinter, Germany) at 300 rpm for 90 min. […]
The immunofluorescence assay for the quantification of MDR markers was optimized to distinguish cancer cells from stromal cells using a cytokeratin 8/18 (CK8/18) antibody cocktail. […]

MRC-5 cells = experiment: Cytotoxicity by immunofluorescence cell scoring (cell counts), normal fibroblasts; details: 24 h treatment
Experimental: as §4
(§7) The compounds were administered 48 h after seeding. The treatment lasted 24 h.
as §6
(§8) The fluorescently labeled cells were imaged using the ImageXpress Pico Automated Cell Imaging System (Molecular Devices, San Jose, CA, USA) with a 4x objective after determining the appropriate exposure time for each illumination filter. Analysis of the obtained images was performed using CellReporterXpress software v. 2.8.2.669 (Molecular Devices). The cytotoxicity of the compounds was determined using the Cell Scoring Analysis Protocol. […] Expression of MDR markers was determined using the Multi-Wavelength Cell Scoring Analysis Protocol.

NCI-H460 cells = experiment: Cytotoxicity by immunofluorescence cell scoring (cell counts), NSCLC cell line; details: 24 h treatment
Experimental: as §4, §7, §6, §8

[3] = tested on: ABCC1 expression in non-cancer cells (CK8/18-); experiment: Immunofluorescence assay of ABCC1 expression in patient-derived NSCLC cultures, non-cancer cells; details: sample TR58, chemotherapeutics, 7 days
Experimental: as §1, §2, §3, §4, §5, §6

[4] = culture TR58, cancer cells (CK8/18+)
[5] = culture TR64, cancer cells (CK8/18+)
[6] = culture TR65, cancer cells (CK8/18+)
[7] = culture TR84, cancer cells (CK8/18+)
[8] = culture TR87, cancer cells (CK8/18+)
[9] = Homo sapiens, MRC5, 24 h, MRC-5 (co-culture with NCI-H460)
[10] = Homo sapiens, MRC5, 24 h, MRC-5 monoculture
[11] = Homo sapiens, MRC5, MRC-5 (co-culture with NCI-H460/R)
[12] = Homo sapiens, NCI-H460, 24 h, NCI-H460 (co-culture with MRC-5)
[13] = Homo sapiens, NCI-H460, 24 h, NCI-H460 monoculture
[14] = Homo sapiens, MRC5, 24 h, MRC-5 (co-culture with NCI-H460/R)

| Structure (SMILES) | ABCG2 expression [1, 4] | ABCG2 expression [1, 5] | ABCG2 expression [1, 6] | ABCG2 expression [1, 7] | ABCG2 expression [1, 8] | ABCG2 expression in CK8/18− cells [2] | IC50 (MRC-5 cells; MRC-5 (co-culture with NCI-H460)) | IC50 (MRC-5 cells; MRC-5 (co-culture with NCI-H460/R)) | IC50 (MRC-5 cells; MRC-5 monoculture) | IC50 (NCI-H460 cells; NCI-H460 (co-culture with MRC-5)) | IC50 (NCI-H460 cells; NCI-H460 monoculture) | ABCC1 expression in CK8/18− cells [3] | IC50 (MRC-5 cells; [9]) | IC50 (MRC-5 cells; [10]) | IC50 (MRC-5 cells; [11]) | IC50 (NCI-H460 cells; [12]) | IC50 (NCI-H460 cells; [13]) | IC50 (MRC-5 cells; [14]) |
| --- | --- | --- | --- | --- | --- | --- | --- | --- | --- | --- | --- | --- | --- | --- | --- | --- | --- | --- |
| N.N.[Cl][Pt][Cl] [Cisplatin, cisplatin] | increase (An increase in ABCB1, ABCC1, or ABCG2 expression of at least 20% at a minimum of one concentration is shown in the table.) | increase (An increase in ABCB1, ABCC1, or ABCG2 expression of at least 20% at a minimum of one concentration is shown in the table.) | increase (An increase in ABCB1, ABCC1, or ABCG2 expression of at least 20% at a minimum of one concentration is shown in the table.) | increase (An increase in ABCB1, ABCC1, or ABCG2 expression of at least 20% at a minimum of one concentration is shown in the table.) | increase (An increase in ABCB1, ABCC1, or ABCG2 expression of at least 20% at a minimum of one concentration is shown in the table.) | increased | > 15 µM | > 15 µM | 14.7 µM | 9.79 µM | 5.71 µM | – | – | – | – | – | – | – |
| CC(=O)O[C@@]12CO[C@@H]1C[C@H](O)[C@@]1(C)C(=O)[C@H](O)C3=C(C)[C@@H](OC(=O)[C@H](O)[C@@H](NC(=O)OC(C)(C)C)c4ccccc4)C[C@@](O)([C@@H](OC(=O)c4ccccc4)[C@H]21)C3(C)C [Docetaxel, docetaxel] | increase (An increase in ABCB1, ABCC1, or ABCG2 expression of at least 20% at a minimum of one concentration is shown in the table.) | increase (An increase in ABCB1, ABCC1, or ABCG2 expression of at least 20% at a minimum of one concentration is shown in the table.) | no change | increase (An increase in ABCB1, ABCC1, or ABCG2 expression of at least 20% at a minimum of one concentration is shown in the table.) | increase (An increase in ABCB1, ABCC1, or ABCG2 expression of at least 20% at a minimum of one concentration is shown in the table.) | – | – | – | – | – | – | elevated | > 5 µM | > 5 µM | > 5 µM | 0.642 µM | 0.554 µM | – |
| COc1cc([C@@H]2c3cc4c(cc3[C@@H](O[C@@H]3O[C@@H]5CO[C@@H](C)O[C@H]5[C@H](O)[C@H]3O)[C@H]3COC(=O)[C@H]23)OCO4)cc(OC)c1O [Etoposide, etoposide] | no change | increase (An increase in ABCB1, ABCC1, or ABCG2 expression of at least 20% at a minimum of one concentration is shown in the table.) | increase (An increase in ABCB1, ABCC1, or ABCG2 expression of at least 20% at a minimum of one concentration is shown in the table.) | increase (An increase in ABCB1, ABCC1, or ABCG2 expression of at least 20% at a minimum of one concentration is shown in the table.) | increase (An increase in ABCB1, ABCC1, or ABCG2 expression of at least 20% at a minimum of one concentration is shown in the table.) | – | – | – | – | – | – | – | > 30 µM | > 30 µM | – | 6.07 µM | 4.81 µM | > 30 µM |
| CC(=O)O[C@H]1C(=O)[C@@]2(C)[C@H]([C@H](OC(=O)c3ccccc3)[C@]3(O)C[C@H](OC(=O)[C@H](O)[C@@H](NC(=O)c4ccccc4)c4ccccc4)C(C)=C1C3(C)C)[C@]1(OC(C)=O)CO[C@@H]1C[C@@H]2O [Paclitaxel, paclitaxel] | increase (An increase in ABCB1, ABCC1, or ABCG2 expression of at least 20% at a minimum of one concentration is shown in the table.) | increase (An increase in ABCB1, ABCC1, or ABCG2 expression of at least 20% at a minimum of one concentration is shown in the table.) | increase (An increase in ABCB1, ABCC1, or ABCG2 expression of at least 20% at a minimum of one concentration is shown in the table.) | increase (An increase in ABCB1, ABCC1, or ABCG2 expression of at least 20% at a minimum of one concentration is shown in the table.) | increase (An increase in ABCB1, ABCC1, or ABCG2 expression of at least 20% at a minimum of one concentration is shown in the table.) | – | – | – | – | – | – | elevated | > 5 µM | > 5 µM | – | 0.339 µM | 0.381 µM | > 5 µM |
| Nc1nc2[nH]cc(CCc3ccc(C(=O)N[C@@H](CCC(=O)O)C(=O)O)cc3)c2c(=O)[nH]1 [Pemetrexed, pemetrexed] | no change | no change | no change | increase (An increase in ABCB1, ABCC1, or ABCG2 expression of at least 20% at a minimum of one concentration is shown in the table.) | no change | – | – | – | – | – | – | – | > 300 µM | > 300 µM | > 300 µM | > 300 µM | > 300 µM | – |
| CCC1=C[C@@H]2CN(C1)Cc1c([nH]c3ccccc13)[C@@](C(=O)OC)(c1cc3c(cc1OC)N(C)[C@H]1[C@@](O)(C(=O)OC)[C@H](OC(C)=O)[C@]4(CC)C=CCN5CC[C@]31[C@@H]54)C2 [Vinorelbine] | increase (An increase in ABCB1, ABCC1, or ABCG2 expression of at least 20% at a minimum of one concentration is shown in the table.) | increase (An increase in ABCB1, ABCC1, or ABCG2 expression of at least 20% at a minimum of one concentration is shown in the table.) | increase (An increase in ABCB1, ABCC1, or ABCG2 expression of at least 20% at a minimum of one concentration is shown in the table.) | increase (An increase in ABCB1, ABCC1, or ABCG2 expression of at least 20% at a minimum of one concentration is shown in the table.) | increase (An increase in ABCB1, ABCC1, or ABCG2 expression of at least 20% at a minimum of one concentration is shown in the table.) | – | – | – | – | – | – | – | 0.477 µM | > 1 µM | – | 0.0333 µM | 0.0366 µM | > 1 µM |
